Measured values: patent publication US20240366624A1, “METHODS AND COMPOSITIONS FOR TREATING THROMBOTIC DISEASE” (Washington University, priority 2023, published 2024)
“Also recorded” adds a separate entry of the source.

Key:
PDI = PDI (Homo sapiens, UniProt P07237); assay: PDI activity assay; format: biochemical
Source text: FIG. 17(A-F) is an exemplary embodiment of identification of novel ERO1α inhibitors by high throughput screening in accordance with the present disclosure. FIG. 17A: A scheme of an ERO1α activity assay. FIG. 17B: Screening of chemical libraries in the ERO1α activity assay. FIG. 17C: The inhibitory effect of selected compounds on ERO1α activity. FIG. 17D: The inhibitory effect of selected compounds on PDI activity. FIG. 17E: The inhibitory effect of selected compounds on H2O2 activity. FIG. 17F: The inhibitory effect of selected compounds on thiol-reacting activity. The data represent the mean±SD (n=3). *P<0.05, **P<0.01, ***P<0.001, and ****P<0.0001 vs. vehicle control, Student's t-test.
To identify a novel ERO1α inhibitor, 5800 compounds were screened using an ERO1α activity assay (FIG. 17A and FIG. 17B). […] The selected compounds were further tested in assays measuring PDI, antioxidant, and thiol-reacting activities (FIG. 17D through FIG. 17F). […] B12 inhibited P-selectin exposure and αIIbβ3 activation in agonist-activated mouse and human platelets in a concentration-dependent manner (FIG. 18B through FIG. 18E).

human platelets [1] = assay: Flow cytometry of P-selectin exposure and αIIbβ3 integrin activation, human platelets; format: cell-based; details: 3 to 10 μM, human platelets, thrombin or CRP
Source text: FIG. 18(A-R) is an exemplary embodiment of novel small-molecule inhibitors recapitulating the defect in Ero1α (endoplasmic reticulum oxidoreductase 1a)-null platelets in accordance with the present disclosure. FIG. 18A: The structure of B12 and its inhibitory effect on ERO1α activity. FIG. 18(B-E): The inhibitory effect of B12 on P-selectin exposure and αIIbβ3 integrin activation in (FIG. 18B and FIG. 18C) mouse and (FIG. 18D and FIG. 18E) human platelets. FIG. 18F: The structure of B12-5 and its inhibitory effect on ERO1α activity. FIG. 18G: A docking model of B12-5-ERO1α (3AHQ) and flavin adenine dinucleotide (FAD)-ERO1α complex. There are pi-sulfur interactions of the phenothiazine head group (B112-5) or a tricyclic ring (FAD) with Met389 and Cys397. Also, there are H bond interactions between the tail/alkyl group and His255, Asn259, and Arg287. […] After incubation with a different concentration of B12-5, the specific interaction between B12-5 and ERO1α was measured by subtracting the nonspecific binding. The KD value was calculated from the Kon and Koff values. […] P values determined by ANOVA and Dunnett test (FIG. 18(B-E), FIG. 18(1-L), and FIG. 18(O-R) [for B12-5]) or Student t test (FIG. 18M, FIG. 18N, and FIG. 18(O-R) [for BAPTA (1,2-bis(o-aminophenoxy)ethane-N,N,N′,N′-tetraacetic acid)]). […]

human platelets [2] = assay: Ca2+ mobilization (FLIPR), human platelets; format: cell-based; details: thrombin or A23187
Method: Ca^2+ mobilization was measured as described previously. WT control and Ero1α-null platelets (1×10^8/mL) were suspended in HEPES-Tyrode buffer, pH 7.4. Cells were incubated with a Ca^2+ dye (FLIPR Ca^2+5 assay kit; Molecular Devices) for 30 minutes at 37° C. in the dark, followed by stimulation with thrombin (0.1 U/mL), A23187 (2 μM) or thapsigargin (10-20 μM). After measuring Ca^2+ release, 1 mM CaCl2) was immediately added to assess Ca^2+ influx. In other experiments, Ca^2+ dye-labeled human and WT mouse platelets were incubated with a vehicle or an inhibitor for 10 minutes at 37° C. Cytosolic Ca^2+ levels were measured using a FlexStation3 microplate reader with an excitation wavelength of 485 nm and an emission wavelength of 525 nm. Ca^2+ mobilization was quantified by the area under the curve and expressed as a relative fluorescence unit.

PDI, sequence (P07237 18-508, species assumed): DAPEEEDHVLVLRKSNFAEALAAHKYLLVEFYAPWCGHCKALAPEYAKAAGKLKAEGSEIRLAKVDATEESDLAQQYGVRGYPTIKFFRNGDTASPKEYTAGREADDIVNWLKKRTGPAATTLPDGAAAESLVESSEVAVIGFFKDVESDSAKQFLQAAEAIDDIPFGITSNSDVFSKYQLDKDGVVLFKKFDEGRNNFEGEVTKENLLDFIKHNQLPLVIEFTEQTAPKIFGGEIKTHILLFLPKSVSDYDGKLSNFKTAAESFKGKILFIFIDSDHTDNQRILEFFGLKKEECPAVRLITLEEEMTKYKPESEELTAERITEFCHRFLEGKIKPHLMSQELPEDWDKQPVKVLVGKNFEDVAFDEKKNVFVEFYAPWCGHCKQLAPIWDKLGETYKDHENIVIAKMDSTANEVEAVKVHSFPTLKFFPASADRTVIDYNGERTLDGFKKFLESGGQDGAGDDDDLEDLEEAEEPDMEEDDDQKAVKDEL

O=C(CSc1nc(O)cc(O)n1)N1c2ccccc2Sc2ccccc21 [B12-5]
PDI inhibition at 100 μM (%) (PDI; 100 μM): 8.2 ± 2% | effect on PDI activity (PDI; at or up to 100 μM): minimal effect; also recorded: did not affect | P-selectin exposure and αIIbβ3 activation (human platelets [1]): significantly reduced | Ca2+ release and influx (human platelets [2]): dose dependently inhibited
